Laboratory results: patent US20260374766A1, “METHODS FOR TREATING CANCER” (Antares Therapeutics, Inc., priority 2022, published 2026)
Where two headings read alike, the source gives them in different places.

What was measured:
p53 Y220C = p53 Y220C (Homo sapiens, UniProt P04637, Y220C); test: Luciferase Reporter Assay (Luc), p53 response element, NClH1299 cells with inducible p53 Y220C; assay type: cell-based; settings: luciferase reporter, NClH1299 inducible p53 Y220C, 6 hour; for AC50: read-out: Luc P53 Y220C AC50
Method in brief: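 Luminescence readout (One-Glo, 5 min shaking at RT, read at once) after 6 h compound exposure; cells pre-induced 24 h with 0.5 ug/mL doxycycline, 5,000/well.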

H1299 p53 Y220C = test: Cell Proliferation Assay (CellTiter-Glo, CTG), H1299 p53 Y220C (NClH1299-inducible p53 Y220C); assay type: cell-based; settings: Homo sapiens, NCI-H1299, 120 h, CellTiter-Glo, 5 days
Method in brief: (§1)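 Tet-One inducible p53 Y220C or R273H constructs were stably introduced into NCI-H1299 by lentiviral transduction; NUGC3 was used as is. Cells (250-500 per well) were exposed to compound for 5 days, then CellTiter-Glo was added for 10 min at room temperature and IC50 was calculated from luminescence.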

H1299 p53 R273H = test: Cell Proliferation Assay (CellTiter-Glo, CTG), H1299 p53 R273H (NClH1299-inducible p53 R273H); assay type: cell-based; settings: Homo sapiens, NCI-H1299, 120 h, CellTiter-Glo, 5 days
Method in brief: as §1

NUGC3 p53 Y220C = test: Cell Proliferation Assay (CellTiter-Glo, CTG), NUGC3 p53 Y220C; assay type: cell-based; settings: Homo sapiens, NUGC-3, 120 h, CellTiter-Glo, 5 days
Method in brief: as §1

[1] = biological target: T1, p53 Y220C mutant protein (amino acid residues 94-293) (Homo sapiens, UniProt P04637, Y220C); test: Thermal Shift Assay (TSA), dTM; assay type: binding; settings: for ΔTm at 100 µM: 100 uM compound; for ΔTm at 10 µM: 10 uM compound
T1 construct: p53 Y220C mutant protein (amino acid residues 94-293)
Method in brief: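 Recombinant p53 Y220C core (residues 94-293) at 5 μM was incubated with 10 μM or 100 μM compound for 3 hours at 20 °C in 20 mM HEPES pH7.4, 100 mM NaCl, 0.01% Pluronic F-127, 1% DMSO with 400-fold diluted Sypro Orange. Melting was followed from 30 °C to 50 °C at 0.03 °C/second, and TM came from a Boltzmann two-state fit.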

[2] = biological target: T1, p53 Y220C mutant protein (amino acid residues 94-293); test: Surface Plasmon Resonance (SPR) assay, Kd_kinetic; assay type: binding; settings: SPR, p53 Y220C, read-out: SPR P53 Y220C KD kinetic
Method in brief: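 Kinetic dissociation constants derived by 1:1 model fit of SPR data acquired at 16 or 20 °C, pH 7.5 Tris/NaCl running buffer with 1% DMSO.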

[3] = 10 uM tool compound as positive control
[4] = thermal shift, read-out: TSA P53 Y220C dTM (100 uM)
[5] = NClH1299-inducible p53 Y220C cells
[6] = NClH1299-inducible p53 R273H cells
[7] = p53 Y220C, read-out: TSA P53 Y220C dTM
[8] = thermal shift, read-out: TSA P53 Y220C dTM (10 uM)

Row | Compound | Emax (p53 Y220C; [3]) [%] | AC50 (p53 Y220C) [nM] | IC50 (H1299 p53 Y220C; H1299 p53 Y220C) [nM] | IC50 (H1299 p53 R273H; H1299 p53 R273H) [nM] | IC50 (NUGC3 p53 Y220C; NUGC3 p53 Y220C) [nM] | ΔTm at 100 µM [1, 4] [°C] | Kd ([2]; kinetic KD) [nM] | AC50 (p53 Y220C; AC50) [nM] | Emax (p53 Y220C; Emax) [%] | IC50 (H1299 p53 Y220C; [5]) [nM] | IC50 (H1299 p53 R273H; [6]) [nM] | IC50 (NUGC3 p53 Y220C; NUGC3 cells) [nM] | ΔTm at 10 µM [1, 7] [°C] | Kd [2] [nM] | ΔTm at 10 µM [1, 8] [°C] | ΔTm at 100 µM [1, 7] [°C]
1 | COc1cc(S(=O)(=O)C2CC2)ccc1NCC#Cc1nc2c(N[C@@H]3CCN(C)C[C@@H]3F)cccn2c1CC(F)(F)F [Example 67, (3S,4R)—N-[2-(3-{[4-(cyclopropanesulfonyl)-2-methoxyphenyl]amino}prop-1-yn-1-yl)-3-(2,2,2-trifluoroethyl)imidazo[1,2-a]pyridin-8-yl]-3-fluoro-1-methylpiperidin-4-amine] | 70 to 80 | < 750 | < 750 | 5000 to 8000 | < 750 | ≥ 10 | < 10 | – | – | – | – | – | – | – | – | –
2 | CNC(=O)c1ccc(OC)c(NCC#Cc2nn3c(N[C@@H]4CCNC[C@@H]4F)cccc3c2SC(F)(F)F)n1 [Example 237] | – | – | – | – | – | – | – | < 750 | 70 to 80 | < 750 | 5000 to 8000 | < 750 | ≥ 10 | < 10 | – | –
3 | CNC(=O)c1ccc(NCC#Cc2nc3c(N[C@@H]4CCN(C)C[C@@H]4F)cccn3c2CC(F)(F)F)cn1 [Example 52, 5-{[3-(8-{[(3S,4R)-3-fluoro-1-methylpiperidin-4-yl]amino}-3-(2,2,2-trifluoroethyl)imidazo[1,2-a]pyridin-2-yl)prop-2-yn-1-yl]amino}-N-methylpyridine-2-carboxamide] | 70 to 80 | > 3000 | 1500 to 3000 | ≥ 10000 | > 3000 | 5 to 10 | 10 to 100 | – | – | – | – | – | – | – | – | –
4 | CNC(=O)c1ccc(NCC#Cc2nc3c(N[C@H]4CCc5ncnn5C4)cccn3c2SC(F)(F)F)c(OC)c1 (stereo in doubt) [Example 189] | 70 to 80 | > 3000 | > 3000 | ≥ 10000 | > 3000 | 5 to 10 | 10 to 100 | – | – | – | – | – | – | – | 5 to 10 | –
5 | CNC(=O)c1ccc(NCC#Cc2nc3c(NC4COC4)cccn3c2SC(F)(F)F)c(OC)c1 [Example 225] | – | – | – | – | – | – | – | 750 to 1500 | 80 to 90 | 750 to 1500 | ≥ 10000 | 1500 to 3000 | 1 to 5 | 10 to 100 | – | 5 to 10
6 | COc1cc(S(C)(=O)=O)ccc1NCC#Cc1nc2c(N[C@@H]3CCNC[C@@H]3F)cccn2c1SC(F)(F)F [Example 83] | 70 to 80 | < 750 | < 750 | 5000 to 8000 | < 750 | ≥ 10 | < 10 | – | – | – | – | – | – | – | ≥ 10 | –
7 | CNC(=O)c1cncc(NCC#Cc2nc3c(N[C@@H]4CCN(C)C[C@@H]4F)cccn3c2SC(F)(F)F)c1 [Example 142] | < 70 | 750 to 1500 | 750 to 1500 | ≥ 10000 | < 750 | ≥ 10 | < 10 | – | – | – | – | – | – | – | ≥ 10 | –
8 | COc1cc(S(C)(=O)=O)ccc1NCC#Cc1nc2c(NC3CC4(COC4)C3)cccn2c1CC(F)(F)F [Example 115, 2-{3-[(4-methanesulfonyl-2-methoxyphenyl)amino]prop-1-yn-1-yl}-N-{2-oxaspiro[3.3]heptan-6-yl}-3-(2,2,2-trifluoroethyl)imidazo[1,2-a]pyridin-8-amine] | < 70 | > 3000 | > 3000 | ≥ 10000 | > 3000 | 5 to 10 | 100 to 1000 | – | – | – | – | – | – | – | – | –
